Data taken from patent publication US20030104089A1, “Minari extract for preventing the induction and metastasis of cancer by carcinogens contained in cigarette smoke, fermented foods or alcoholic drinks” (priority 2000, published 2003).

Tests used:
[1] = test system: PCNA (proliferative cell nuclear antigen); assay: PCNA expression in lung tissue of NNK-treated A/J mice; type: in vivo; conditions: single i.p. NNK 4 mg, normal feed, 4 months, compared to water-only-receiving group
Description: The NNK group received a single administration of 4 mg of NNK. The group receiving NNK-Minari received a single administration of NNK and thereafter a feed to which Minari extract was added at a 1.25% (w/w) concentration. The other group received a normal feed. All the groups were allowed take, ad lib., their feeds for 4 months.
A/J mice were divided into three experimental groups: a single intraperitoneal water administration-receiving (+normal feed) group; a single intraperitoneal NNK (4 mg) administration-receiving (+normal feed) group; and a single intraperitoneal NNK administration-receiving (+feed to which Minari extract is added at a concentration of 1.25%) group. Four months later, the expression level of PCNA in each experimental group was measured.

[2] = humans, calculated; cited from earlier work

Compound | expression level of PCNA [1] | virtually safe dose (VSD) for liver cancer [2] | virtually safe dose (VSD) for lung cancer [2]
CN(CCCC(=O)c1cccnc1)N=O [NNK, {(4-N-methyl-N-nitrosoamino)-1-(3-pyridyl)-1-butanone}] | significantly increased | – | –
CCOC(N)=O [urethane, ethylcarbamate] | – | 7.2×10^−5 mg/kg body weight | 1.8×10^−4 mg/kg body weight
